Assay results: patent US20180282415A1, “Combination of a PD-1 Axis Binding Antagonist and an ALK Inhibitor for Treating ALK-Negative Cancer” (Merck Patent GmbH, priority 2015, published 2018)

What was measured:
[1] = system: MC38 colon carcinoma; assay: In vivo tumor efficacy, MC38 model, crizotinib with anti-PD-L1 (Example 3); parameters: species or system C57BL/6 mice; settings: crizotinib 40 mg/kg, anti-mPDL1 10 mg/kg
Method: (§1) CT26 colon carcinoma cell line has published mutanome and transcriptome data, with no known ALK fusion events or oncogenic mutations. Castle et al, BMC Genomics, 15:190 (13 Mar. 2014); Castle et al, CAN 11:3722 (11 Jan. 2012).
(§2) Six- to eight-week old female Balb/c or C57BL/6 mice were purchased from The Jackson Laboratories.
MC38 colon carcinoma cell line was kindly provided by Dr. Antoni Ribas at UCLA, California. Cells were cultured in DMEM medium supplemented with 10% fetal bovine serum, and 100 I.U./mL penicillin/streptomycin at 37° C. in an atmosphere of 5% CO2 in air, and IMPACT-tested for pathogens at Research Animal Diagnostic Laboratory (RADIL) (Columbia, Mo.). Pathogen-free cells growing in an exponential growth phase were harvested and used for tumor inoculation.
For the MC38 study, C57BL/6 mice were inoculated subcutaneously in the right lower flank with 0.2×10^6 MC38 colon carcinoma cells. When tumor bearing mice achieved a mean tumor volume of 50 to 150 mm^3, mice were randomly assigned to 1 of 4 treatment groups, n=10.

[2] = system: CT26 colon carcinoma; assay: In vivo tumor efficacy, CT26 model, crizotinib or alectinib with anti-PD-L1 (Example 3); parameters: species or system Balb/c mice
From the text: as §1, §2
CT26 cell lines, anti-PD-L1 antibody and Rat IgG isotypes (IgG2a and IgG2b) were purchased from BioXCell (clones 2A3 and LTF2, respectively) and prepared as described in Example 2 above. […]

[3] = system: MC38 colon carcinoma; assay: In vivo tumor efficacy, MC38 model, crizotinib with avelumab (Example 5); parameters: species or system C57BL/6 mice; settings: for Tumor Volume (Mean ± SEM): avelumab 20 mg/kg i.p., crizotinib 40 mg/kg orally QD
Method: Avelumab is a fully human IgG1 antibody that recognizes both human and mouse PD-L1. […] Six- to eight-week old female C57BL/6 mice were purchased from The Jackson Laboratories (Farmington, Conn.). Mice were maintained and all animal experiments were conducted according to the protocols approved by the Institutional Animal Care and Use Committee of Rinat, South San Francisco and Worldwide Research and Development (WRD), La Jolla, Pfizer Inc. MC38 colon carcinoma cell line was kindly provided by Dr. Antoni Ribas at UCLA, California. Cells were cultured in DMEM medium supplemented with 10% fetal bovine serum, and 100 I.U./mL penicillin/streptomycin at 37° C. in an atmosphere of 5% CO2 in air, and IMPACT-tested for pathogens at Research Animal Diagnostic Laboratory (RADIL) (Columbia, Mo.). Pathogen-free cells growing in an exponential growth phase were harvested and used for tumor inoculation. […] Human IgG1 was prepared in-house (Lot No. NB123249p192CA110124). […] Body weight was recorded weekly. […] Mice were monitored for tumor growth and body weight changes.

[4] = system: activated T cells; assay: T cell viability, Cell-Titer Glo Luminescent Cell Viability Assay; assay type: cell-based, human; settings: for Luciferase RLU (T cell viability): log[Agonist]
Method: Briefly, human cells were isolated from healthy donors' PBMCs by using EasySep™ Human T Cell Enrichment Kit (Stemcell Technologies) according to manufacturer's instruction. […] Cells were cultured in RPMI 1640 medium supplemented with 10% FCS and 100 I.U./mL penicillin/streptomycin in humidified incubator at 37° C. with 5% CO2. […] Culture supernatants were collected on Day 2 or 3 for cytokine analysis. Plates were then harvested on DNA specific filter papers (Perkin Elmer) using Harvester96 (Tomtec Life Sciences). The radiolabeled filters were covered with beta scintillation liquid (Perkin Elmer) and read in Microbeta® counter plates (Perkin Elmer). ^3H Thymidine was pulsed on Day 2 for T cell proliferation assay. The impact by sunitinib and axitinib on T cell proliferation and viability were repeated as previously published (FIGS. 1A and 1B).
Cell viability was measured by Cell-Titer Glo Luminescent Cell Viability Assay® (Promega, Madison). […] Table 4 below provides the Luciferase RLU values reflecting T cell viability for each of the respective inhibitors.

[5] = system: CD3/CD28-stimulated effector cells (T cells from healthy donors' PBMCs); assay: T cell proliferation assay (3H thymidine incorporation), CD3/CD28-stimulated T cells; assay type: cell-based, human; settings: for Thymidine incorporation(CPM): log[Agonist]
From the text: Briefly, human cells were isolated from healthy donors' PBMCs by using EasySep™ Human T Cell Enrichment Kit (Stemcell Technologies) according to manufacturer's instruction. […] Culture supernatants were collected on Day 2 or 3 for cytokine analysis. Plates were then harvested on DNA specific filter papers (Perkin Elmer) using Harvester96 (Tomtec Life Sciences). The radiolabeled filters were covered with beta scintillation liquid (Perkin Elmer) and read in Microbeta® counter plates (Perkin Elmer). ^3H Thymidine was pulsed on Day 2 for T cell proliferation assay.

[6] = system: peripheral blood mononuclear cells (PMBCs); settings: published studies (Stehle et al. 2013); cited from earlier work

## C[C@@H](Oc1cc(-c2cnn(C3CCNCC3)c2)cnc1N)c1c(Cl)ccc(F)c1Cl [crizotinib, 3-[(1R)-1-(2,6-dichloro-3-fluorophenyl)ethoxy]-5-(1-piperidin-4-ylpyrazol-4-yl)pyridin-2-amine]
[1]; Day 7
  Tumor Volume (Mean ± SEM): 78.1 ± 6.0 mm^3
[1]; Day 14
  Tumor Volume (Mean ± SEM): 169.7 ± 16.3 mm^3
[1]; Day 19
  Tumor Volume (Mean ± SEM): 291.7 ± 26.2 mm^3
[1]; Day 24
  Tumor Volume (Mean ± SEM): 580.5 ± 67.0 mm^3
[1]; Day 27
  Tumor Volume (Mean ± SEM): 836.5 ± 137.8 mm^3
[2]; Day 7, crizotinib 5 mg/kg (alone or with anti-mPDL1)
  Tumor Volume (Mean ± SEM): 90.3 ± 8.1 mm^3
[2]; Day 7, crizotinib 20 mg/kg (alone or with anti-mPDL1)
  Tumor Volume (Mean ± SEM): 90.3 ± 8.0 mm^3
[2]; Day 7, crizotinib 40 mg/kg (alone or with anti-mPDL1)
  Tumor Volume (Mean ± SEM): 94.4 ± 7.9 mm^3
[2]; Day 10, crizotinib 5 mg/kg (alone or with anti-mPDL1)
  Tumor Volume (Mean ± SEM): 140.9 ± 18.0 mm^3
[2]; Day 10, crizotinib 20 mg/kg (alone or with anti-mPDL1)
  Tumor Volume (Mean ± SEM): 156.1 ± 21.9 mm^3
[2]; Day 10, crizotinib 40 mg/kg (alone or with anti-mPDL1)
  Tumor Volume (Mean ± SEM): 127.0 ± 9.8 mm^3
[2]; Day 14, crizotinib 5 mg/kg (alone or with anti-mPDL1)
  Tumor Volume (Mean ± SEM): 246.6 ± 54.7 mm^3
[2]; Day 14, crizotinib 20 mg/kg (alone or with anti-mPDL1)
  Tumor Volume (Mean ± SEM): 234.2 ± 49.0 mm^3
[2]; Day 14, crizotinib 40 mg/kg (alone or with anti-mPDL1)
  Tumor Volume (Mean ± SEM): 218.5 ± 31.5 mm^3
[2]; Day 18, crizotinib 5 mg/kg (alone or with anti-mPDL1)
  Tumor Volume (Mean ± SEM): 407.1 ± 122.2 mm^3
[2]; Day 18, crizotinib 20 mg/kg (alone or with anti-mPDL1)
  Tumor Volume (Mean ± SEM): 299.3 ± 67.1 mm^3
[2]; Day 18, crizotinib 40 mg/kg (alone or with anti-mPDL1)
  Tumor Volume (Mean ± SEM): 319.6 ± 47.7 mm^3
[2]; Day 22, crizotinib 5 mg/kg (alone or with anti-mPDL1)
  Tumor Volume (Mean ± SEM): 749.8 ± 220.0 mm^3
[2]; Day 22, crizotinib 20 mg/kg (alone or with anti-mPDL1)
  Tumor Volume (Mean ± SEM): 631.3 ± 158.5 mm^3
[2]; Day 22, crizotinib 40 mg/kg (alone or with anti-mPDL1)
  Tumor Volume (Mean ± SEM): 685.3 ± 101.1 mm^3
[2]; Day 25, crizotinib 5 mg/kg (alone or with anti-mPDL1)
  Tumor Volume (Mean ± SEM): 1161.1 ± 415.4 mm^3
[2]; Day 25, crizotinib 20 mg/kg (alone or with anti-mPDL1)
  Tumor Volume (Mean ± SEM): 934.9 ± 223.8 mm^3
[2]; Day 25, crizotinib 40 mg/kg (alone or with anti-mPDL1)
  Tumor Volume (Mean ± SEM): 1074.5 ± 136.2 mm^3
[2]; compared to isotype control or single agents
  Anti-tumor effect in CT26 model: no anti-tumor effects
[3]; Day 7
  Tumor Volume (Mean ± SEM): 78.1 ± 6.0 mm^3
[3]; Day 14
  Tumor Volume (Mean ± SEM): 169.7 ± 16.3 mm^3
[3]; Day 19
  Tumor Volume (Mean ± SEM): 291.7 ± 26.2 mm^3
[3]; Day 24
  Tumor Volume (Mean ± SEM): 580.5 ± 67.0 mm^3
[3]; Day 27
  Tumor Volume (Mean ± SEM): 836.5 ± 137.8 mm^3
[3]; compared with the isotype control antibody treated group, avelumab 20 mg/kg, crizotinib 40 mg/kg
  TGI: 48.5%
[4]; FIG. 1B
  Effect on T cell viability: did not result in dose-dependent decreases in T cell viability
[4]; μM: 0
  Luciferase RLU (T cell viability): 94.22 ± 1.814 RLU
[4]; μM: 1
  Luciferase RLU (T cell viability): 91.72 ± 2.354 RLU
[4]; μM: 2
  Luciferase RLU (T cell viability): 64.24 ± 3.748 RLU
[4]; μM: 3
  Luciferase RLU (T cell viability): 1.474 ± 0.1693 RLU
[4]; μM: −1
  Luciferase RLU (T cell viability): 95.6927 ± 1.827 RLU
[4]; μM: −2
  Luciferase RLU (T cell viability): 93.68 ± 1.564 RLU
[4]; μM: −3
  Luciferase RLU (T cell viability): 89.08 ± 2.843 RLU
[5]; activated T cells, FIG. 1A
  Effect on T cell proliferation: did not have adverse effects on T cell proliferation
[5]; μM: 0
  Thymidine incorporation(CPM): 432360.3 ± 29488.63 CPM
[5]; μM: 1
  Thymidine incorporation(CPM): 436099.3 ± 34171.33 CPM
[5]; μM: 2
  Thymidine incorporation(CPM): 270672.7 ± 18298.53 CPM
[5]; μM: −1
  Thymidine incorporation(CPM): 438641 ± 47103.88 CPM
[5]; μM: −2
  Thymidine incorporation(CPM): 442995.3 ± 42508.08 CPM
[5]; μM: −3
  Thymidine incorporation(CPM): 421221.3 ± 24333.6 CPM

## CNC(=O)c1ccccc1Sc1ccc2c(/C=C/c3ccccn3)n[nH]c2c1 [Axitinib, axitinib]
[6]
  Toxicity in peripheral blood mononuclear cells: only minor toxicity effects
[4]; μM: 0
  Luciferase RLU (T cell viability): 92.63 ± 0.5221 RLU
[4]; μM: 1
  Luciferase RLU (T cell viability): 89.79 ± 1.428 RLU
[4]; μM: 2
  Luciferase RLU (T cell viability): 86.63 ± 0.8779 RLU
[4]; μM: 3
  Luciferase RLU (T cell viability): 78.81 ± 3.223 RLU
[4]; μM: −1
  Luciferase RLU (T cell viability): 91.35 ± 1.526 RLU
[4]; μM: −2
  Luciferase RLU (T cell viability): 95.54 ± 3.15 RLU
[4]; μM: −3
  Luciferase RLU (T cell viability): 97.36 ± 1.186 RLU
[5]; μM: 0
  Thymidine incorporation(CPM): 437978 ± 5214.787 CPM
[5]; μM: 1
  Thymidine incorporation(CPM): 385672.3 ± 9004.015^ CPM
[5]; μM: 2
  Thymidine incorporation(CPM): 300379.3 ± 25594 CPM
[5]; μM: 3
  Thymidine incorporation(CPM): 291128.7 ± 31076.09^ CPM
[5]; μM: −1
  Thymidine incorporation(CPM): 407235 ± 52888.48 CPM
[5]; μM: −2
  Thymidine incorporation(CPM): 408592.3 ± 11690 CPM
[5]; μM: −3
  Thymidine incorporation(CPM): 394950 ± 19054.05 CPM
